Results on 11 compounds are retold here after patent US10144738B2, “Pyrazolo[1,5-A]PYRAZIN-4-YL derivatives” (Pfizer Inc., priority 2016, dated 2018).

Common to all, as to format: biochemical
What all share (settings): recombinant human kinase domain, Caliper mobility shift

The target in experiment [1] is TYK2 (Homo sapiens (Human), UniProt P29597). The experiment is described as follows: JAK Caliper enzyme assay at 1 mM ATP (TYK2). The protocol: (§1) Compounds of the invention were evaluated by in vitro methods to determine their respective ability to inhibit the JAK kinases (TYK2, JAK1, JAK2, JAK3).
(§2) The human JAK inhibitory activity was determined by using a microfluidic assay to monitor phosphorylation of a synthetic peptide by the recombinant human kinase domain of each of the four members of the JAK family, JAK1, JAK2, JAK3 and TYK2. […] Each assay condition was optimized for enzyme concentration and room temperature incubation time to obtain a conversion rate of 20% to 30% phosphorylated peptide product. Reactions were terminated by the addition of stop buffer containing EDTA. Utilizing the LabChip 3000 mobility shift technology (Caliper Life Science), each assay reaction was sampled to determine the level of phosphorylation. This technology is separation-based, allowing direct detection of fluorescently labeled substrates and products. Separations are controlled by a combination of vacuum pressure and electric field strength optimized for each peptide substrate.
(§3) JAK Caliper Enzyme Assay at 1 mM ATP
(§4) Compounds were added to a 384-well plate. Reaction mixtures contained 10 mM HEPES, pH 7.4, 10 mM MgCl2, 0.01% BSA, 0.0005% Tween 20, 1 mM ATP and 1 μM peptide substrate. […] The assays were initiated by the addition of 20 nM JAK1, 1 nM JAK2, 1 nM JAK or 1 nM TYK2 enzyme and were incubated at room temperature for three hours for JAK1, 60 minutes for JAK2, 75 minutes for JAK3 or 135 minutes for TYK2. Enzyme concentrations and incubation times were optimized for each new enzyme preps and were modified slightly over time to ensure 20% to 30% phosphorylation. The assays were stopped with 15 μL of 180 mM HEPES, pH 7.4, 20 mM EDTA, and 0.2% Coating Reagent 3. The assay plates were placed on a Caliper Life Science LC3000 instrument, and each well was sampled using appropriate separation conditions to measure the unphosphorylated and phosphorylated peptide.
(§5) The data was collected using the HTS Well Analyzer software from Caliper Life Sciences. The data output for data analysis is the percent product converted calculated on peak height (Equation 1). % product converted=100*((product)/(product+substrate)) Equation 1: […]
(§6) The percent effect at each compound concentration was calculated based on the positive and negative control well contained within each assay plate (Equation 2). […] The negative control wells contained DMSO alone (at the same concentration as the compound wells) that was used to set the baseline activity in the assay (i.e., uninhibited JAK1, JAK2, JAK3 or TYK2). % effect=100*((sample well−negative control)/(positive control-negative control)) Equation 2: The percent effect was plotted against the compound concentration compound.

Experiment [2] has as its target JAK2 (Homo sapiens (Human), UniProt O60674). The experiment is described as follows: JAK Caliper enzyme assay at 1 mM ATP (JAK2). The protocol:
as §1, §2, §3, §4, §5, §6

Experiment [3] has as its target JAK1 (Homo sapiens (Human), UniProt P23458). The experiment is described as follows: JAK Caliper enzyme assay at 1 mM ATP (JAK1). The protocol:
Compounds of the invention were evaluated by in vitro methods to determine their respective ability to inhibit the JAK kinases (TYK2, JAK1, JAK2, JAK3). The human JAK inhibitory activity was determined by using a microfluidic assay to monitor phosphorylation of a synthetic peptide by the recombinant human kinase domain of each of the four members of the JAK family, JAK1, JAK2, JAK3 and TYK2. […] Reactions were terminated by the addition of stop buffer containing EDTA. Utilizing the LabChip 3000 mobility shift technology (Caliper Life Science), each assay reaction was sampled to determine the level of phosphorylation. This technology is separation-based, allowing direct detection of fluorescently labeled substrates and products. Separations are controlled by a combination of vacuum pressure and electric field strength optimized for each peptide substrate. […] Compounds were added to a 384-well plate. […] Enzyme concentrations and incubation times were optimized for each new enzyme preps and were modified slightly over time to ensure 20% to 30% phosphorylation. […] The assay plates were placed on a Caliper Life Science LC3000 instrument, and each well was sampled using appropriate separation conditions to measure the unphosphorylated and phosphorylated peptide. The data was collected using the HTS Well Analyzer software from Caliper Life Sciences. […] The percent effect at each compound concentration was calculated based on the positive and negative control well contained within each assay plate (Equation 2). […] The percent effect was plotted against the compound concentration compound. […] Where max is the maximum asymptote (complete inhibition), min is the minimum asymptote (no inhibition) and s is the slope factor.

The target of experiment [4] is JAK3 (Homo sapiens (Human), UniProt P52333). The experiment is described as follows: JAK Caliper enzyme assay at 1 mM ATP (JAK3). The protocol: as §1, §2, §3, §4, §5, §6
Sequence of JAK3 (P52333 822-1111): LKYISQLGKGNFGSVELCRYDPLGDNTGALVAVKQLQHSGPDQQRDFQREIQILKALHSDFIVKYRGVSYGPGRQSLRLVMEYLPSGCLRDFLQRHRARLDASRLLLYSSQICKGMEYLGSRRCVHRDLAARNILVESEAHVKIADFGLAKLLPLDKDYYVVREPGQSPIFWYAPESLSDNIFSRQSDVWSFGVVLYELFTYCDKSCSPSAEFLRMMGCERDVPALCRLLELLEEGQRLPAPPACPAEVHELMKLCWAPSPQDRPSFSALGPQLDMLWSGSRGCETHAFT

Sequence of TYK2 (P29597 897-1176): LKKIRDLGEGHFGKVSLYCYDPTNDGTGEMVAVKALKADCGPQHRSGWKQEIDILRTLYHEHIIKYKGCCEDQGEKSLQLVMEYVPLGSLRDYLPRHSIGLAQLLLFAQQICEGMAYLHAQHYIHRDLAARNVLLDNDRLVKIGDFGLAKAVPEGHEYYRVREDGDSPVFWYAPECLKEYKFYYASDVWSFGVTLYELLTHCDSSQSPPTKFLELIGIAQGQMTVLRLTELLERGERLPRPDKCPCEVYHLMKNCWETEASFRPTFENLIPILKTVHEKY
Sequence of JAK1 (P23458 875-1153): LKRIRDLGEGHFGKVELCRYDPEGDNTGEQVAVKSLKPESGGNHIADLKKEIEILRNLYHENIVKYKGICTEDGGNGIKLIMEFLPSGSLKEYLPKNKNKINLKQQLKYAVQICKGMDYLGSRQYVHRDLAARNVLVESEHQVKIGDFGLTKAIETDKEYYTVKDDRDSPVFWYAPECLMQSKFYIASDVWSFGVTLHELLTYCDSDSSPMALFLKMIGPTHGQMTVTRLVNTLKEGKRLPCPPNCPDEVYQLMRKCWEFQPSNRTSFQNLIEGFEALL
Sequence of JAK2 (O60674 849-1124): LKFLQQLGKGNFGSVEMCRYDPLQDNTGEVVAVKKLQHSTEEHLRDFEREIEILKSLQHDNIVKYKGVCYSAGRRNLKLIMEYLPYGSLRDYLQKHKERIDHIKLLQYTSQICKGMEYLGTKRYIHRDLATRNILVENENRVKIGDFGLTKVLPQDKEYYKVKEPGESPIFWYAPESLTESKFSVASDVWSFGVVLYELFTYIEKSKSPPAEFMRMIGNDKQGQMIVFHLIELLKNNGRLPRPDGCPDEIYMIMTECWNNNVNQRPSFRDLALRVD

In general, IC50 refers to the concentration that inhibits the measured activity by half. For the compound `Cn1cc(-c2cn3nccc3c(-c3cnn([C@]4(CC#N)C[C@@H](C#N)C4)c3)n2)c(CO)n1` [Example 22, (1r,3r)-3-(Cyanomethyl)-3-(4-(6-(3-(hydroxymethyl)-1-methyl-1H-pyrazol-4-yl)pyrazolo[1,5-a]pyrazin-4-yl)-1H-pyrazol-1-yl)cyclobutane-1-carbonitrile], the IC50 in experiment [1] was 0.03 µM; in experiment [2], 0.127 µM; in experiment [3], 2.54 µM; in experiment [4], greater than 10 µM.

Take `CO[C@H]1C[C@](CC#N)(n2cc(-c3nc(-c4cc(N)n(C)n4)cn4nccc34)cn2)C1` [Example 24, 2-((1r,3s)-1-(4-(6-(5-Amino-1-methyl-1H-pyrazol-3-yl)pyrazolo[1,5-a]pyrazin-4-yl)-1H-pyrazol-1-yl)-3-methoxycyclobutyl)acetonitrile]: the IC50 is 0.025 µM in experiment [1], 0.432 µM in experiment [2], 3.55 µM in experiment [3] and greater than 10 µM in experiment [4].

With `Cc1cc(-c2cn3nccc3c(-c3cnn([C@]4(CC#N)C[C@@H](C#N)C4)c3)n2)n[nH]1` [Example 26, (1r,3r)-3-(Cyanomethyl)-3-(4-(6-(5-methyl-1H-pyrazol-3-yl)pyrazolo[1,5-a]pyrazin-4-yl)-1H-pyrazol-1-yl)cyclobutane-1-carbonitrile], the IC50 in experiment [1] was 0.021 µM; in experiment [2], 0.158 µM; in experiment [3], 0.713 µM; in experiment [4] it was greater than 10 µM.

For the compound `CO[C@H]1C[C@](CC#N)(n2cc(-c3nc(-c4cc(CO)[nH]n4)cn4nccc34)cn2)C1` [Example 28, 2-((1r,3s)-1-(4-(6-(5-(Hydroxymethyl)-1H-pyrazol-3-yl)pyrazolo[1,5-a]pyrazin-4-yl)-1H-pyrazol-1-yl)-3-methoxycyclobutyl)acetonitrile], the concentration for half-maximal inhibition (IC50) was 0.027 µM in experiment [1], 0.249 µM in experiment [2], 1.36 µM in experiment [3] and greater than 10 µM in experiment [4].

As for `N#CC[C@]1(n2cc(-c3nc(-c4cc(C(N)=O)no4)cn4nccc34)cn2)C[C@H](C#N)C1` [Example 29, 5-(4-(1-((1r,3r)-3-Cyano-1-(cyanomethyl)cyclobutyl)-1H-pyrazol-4-yl)pyrazolo[1,5-a]pyrazin-6-yl)isoxazole-3-carboxamide], the concentration for half-maximal inhibition (IC50) is 0.352 µM in experiment [1], 3.04 µM in experiment [2], 3.93 µM in experiment [3] and greater than 10 µM in experiment [4].

Consider `CO[C@H]1C[C@](CC#N)(n2cc(-c3nc(-c4cn(C)nc4CO)cn4nccc34)cn2)C1` [Example 31, 2-((1r,3s)-1-(4-(6-(3-(Hydroxymethyl)-1-methyl-1H-pyrazol-4-yl)pyrazolo[1,5-a]pyrazin-4-yl)-1H-pyrazol-1-yl)-3-methoxycyclobutyl)acetonitrile], for which the IC50 in experiment [1] is 0.038 µM; in experiment [2], 0.324 µM; in experiment [3] it was greater than 9.86 µM; in experiment [4], greater than 10 µM.

As for `Cn1cc(-c2cn3nccc3c(-c3cnn([C@]4(CC#N)C[C@@H](C#N)C4)c3)n2)nn1` [Example 33, (1r,3r)-3-(Cyanomethyl)-3-(4-(6-(1-methyl-1H-1,2,3-triazol-4-yl)pyrazolo[1,5-a]pyrazin-4-yl)-1H-pyrazol-1-yl)cyclobutane-1-carbonitrile], the IC50 is 0.052 µM in experiment [1], 0.444 µM in experiment [2], 8.72 µM in experiment [3] and greater than 10 µM in experiment [4].

With `Cn1cc(-c2cn3nccc3c(-c3cnn([C@]4(CC#N)C[C@](C)(C#N)C4)c3)n2)cn1` [Example 34, (1s,3s)-3-(Cyanomethyl)-1-methyl-3-(4-(6-(1-methyl-1H-pyrazol-4-yl)pyrazolo[1,5-a]pyrazin-4-yl)-1H-pyrazol-1-yl)cyclobutane-1-carbonitrile], the IC50 was found to be 0.011 µM in experiment [1], 0.019 µM in experiment [2], 0.096 µM in experiment [3] and 3.26 µM in experiment [4].

On to `Cn1cc(-c2cn3nccc3c(-c3cnn([C@]4(CC#N)C[C@@](C)(C#N)C4)c3)n2)cn1` [Example 35, (1r,3r)-3-(Cyanomethyl)-1-methyl-3-(4-(6-(1-methyl-1H-pyrazol-4-yl)pyrazolo[1,5-a]pyrazin-4-yl)-1H-pyrazol-1-yl)cyclobutane-1-carbonitrile], for which the IC50 in experiment [1] is 0.136 µM; in experiment [2], 0.268 µM; in experiment [3] it was 1.92 µM; in experiment [4] it was greater than 10 µM.

For `Cc1cc2c(-c3cnn([C@]4(CC#N)C[C@@H](C#N)C4)c3)nc(-c3cnn(C)c3)cn2n1` [Example 36, (1r,3r)-3-(Cyanomethyl)-3-(4-(2-methyl-6-(1-methyl-1H-pyrazol-4-yl)pyrazolo[1,5-a]pyrazin-4-yl)-1H-pyrazol-1-yl)cyclobutane-1-carbonitrile], the concentration for half-maximal inhibition (IC50) in experiment [1] was 1.6 µM; in experiment [2] it was 0.755 µM; in experiment [3] it was 3.52 µM; in experiment [4] it was greater than 10 µM.

Take `Cn1cc(-c2cn3nccc3c(-c3cnn([C@]4(CC#N)C[C@@H](C#N)C4)c3)n2)c(=O)[nH]1` [Example 37, (1r,3r)-3-(Cyanomethyl)-3-(4-(6-(1-methyl-3-oxo-2,3-dihydro-1H-pyrazol-4-yl)pyrazolo[1,5-a]pyrazin-4-yl)-1H-pyrazol-1-yl)cyclobutane-1-carbonitrile]: the IC50 in experiment [1] is 0.032 µM; in experiment [2], 0.166 µM; in experiment [3] it was 3.49 µM; in experiment [4], greater than 10 µM.
